{
  "source": "patent US20060134300A1",
  "about": "“Nutritional supplement for caffeine-containing beverages” (priority 2004, published 2006)",
  "origin": "cited, not measured here",
  "key": {"[1]": {"test_system": "subjects put under stress", "conditions": "100 mg/kg, within an hour of ingesting"}, "[2]": {"conditions": "dose of 150 mg/kg, extended wakefulness"}, "[3]": {"test_system": "adrenaline and noradrenaline", "conditions": "triple dose of caffeine"}, "[4]": {"test_system": "sympathetic nervous system", "conditions": "intraventricular administration"}, "[5]": {"test_system": "rats", "conditions": "rat, in vivo"}},
  "data": [
    {"smiles": "N[C@@H](Cc1ccc(O)cc1)C(=O)O", "note": "[tyrosine]", "values": [
      {"measurement": "cognitive performance", "setting": "[1]", "result": "improved their cognitive performance"},
      {"measurement": "lapse probability on a high-event-rate vigilance task", "setting": "[2]", "result": "significant reduction"},
      {"measurement": "performance decline on a psychomotor task", "setting": "[2]", "result": "significant amelioration"}
    ]},
    {"smiles": "Cn1c(=O)c2c(ncn2C)n(C)c1=O", "note": "[caffeine, 1,3,7-trimethylxanthine]", "values": [
      {"measurement": "catecholamines (adrenaline and noradrenaline)", "setting": "[3]", "result": "significantly increased"}
    ]},
    {"smiles": "NCCS(=O)(=O)O", "note": "[taurine, 2-aminoethanesulfonic acid]", "values": [
      {"measurement": "sympathetic nerve activity", "setting": "[4]", "result": "inhibited sympathetic nerve activity"},
      {"measurement": "LD 50", "setting": "[5]", "result": "greater than 5,000 mg/kg"}
    ]}
  ]
}
